IC50 data for 18 molecules are collected here from patent publication US20260015358A1, “BICYCLIC DERIVATIVES, COMPOSITIONS AND USES THEREOF” (Danatlas Pharmaceuticals Co., Ltd., priority 2023, published 2026).

Where only a bound is given, the exact number is not on record here.

Test [1] deals with T1, WRN [UniPro: Q14191 (WRN_HUMAN), N500-C946] (Homo sapiens (Human), UniProt Q14191). Put plainly: WRN unwinding assay (FORKF DNA, fluorescence). To be noted: Table 14. In kind it is biochemical.
In test [2] the target is T1, WRN [UniPro: Q14191 (WRN_HUMAN), N500-C946]. Briefly: WRN ATPase assay (ADP-Glo). In kind it is biochemical. Particulars: WRN enzymatic activity assay.

T1 sequence (Q14191 500-946): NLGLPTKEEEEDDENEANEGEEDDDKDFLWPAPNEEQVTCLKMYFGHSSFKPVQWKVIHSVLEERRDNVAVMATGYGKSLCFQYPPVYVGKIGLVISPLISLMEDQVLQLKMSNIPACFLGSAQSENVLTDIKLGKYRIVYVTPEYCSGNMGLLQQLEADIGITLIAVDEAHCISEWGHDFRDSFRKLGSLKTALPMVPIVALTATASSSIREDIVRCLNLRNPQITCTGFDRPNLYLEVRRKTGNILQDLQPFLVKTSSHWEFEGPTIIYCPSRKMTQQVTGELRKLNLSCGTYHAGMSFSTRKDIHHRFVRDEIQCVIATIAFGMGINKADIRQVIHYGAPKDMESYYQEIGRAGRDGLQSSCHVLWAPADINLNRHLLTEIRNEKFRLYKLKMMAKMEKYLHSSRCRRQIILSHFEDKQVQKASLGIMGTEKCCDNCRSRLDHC

In general, IC50 refers to the concentration at which inhibition is half-maximal. Read a high IC50 as a need for much substance. For `CCc1c(N2CCN(C(=O)c3sc4cnccc4c3O)CC2)c(=O)n2nc(C3=CCOCC3)nc2n1CC(=O)Nc1ccc(C(F)(F)F)cc1Cl` [Example 74, N-(2-Chloro-4-(trifluoromethyl)phenyl)-2-(2-(3,6-dihydro-2H-pyran-4-yl)-5-ethyl-6-(4-(3-hydroxythieno[2,3-c]pyridine-2-carbonyl)piperazin-1-y1)-7-oxo-[1,2,4]triazolo[1,5-a]pyrimidin-4(7H)-yl)acetamide], the IC50 in test [1] and in test [2] was under 100 nM throughout.
As for `CCc1c(N2CCN(C(=O)C(=O)Nc3ccno3)CC2)c(=O)n2nc(C3=CCOCC3)nc2n1CC(=O)Nc1ccc(C(F)(F)F)cc1Cl` [Example 354, 2-(4-(4-(2-((2-Chloro-4-(trifluoromethyl)phenyl)amino)-2-oxoethyl)-2-(3,6-dihydro-2H-pyran-4-yl)-5-ethyl-7-oxo-4,7-dihydro-[1,2,4]triazolo[1,5-a]pyrimidin-6-yl)piperazin-1-yl)-N-(isoxazol-5-yl)-2-oxoacetamide], the IC50 in test [1] and in test [2] was under 100 nM in each case.
On to `CCc1c(N2CCN(C(=O)CNC(=O)c3cccc(Cl)c3Cl)CC2)c(=O)n2nc(C3=CCOCC3)nc2n1CC(=O)Nc1ccc(C(F)(F)F)cc1Cl` [Example 104, 2,3-Dichloro-N-(2-(4-(4-(2-((2-chloro-4-(trifluoromethyl)phenyl)amino)-2-oxoethyl)-2-(3,6-dihydro-2H-pyran-4-yl)-5-ethyl-7-oxo-4,7-dihydro-[1,2,4]triazolo[1,5-a]pyrimidin-6-yl)piperazin-1-yl)-2-oxoethyl)benzamide], for which the IC50 is under 100 nM in test [1] and 100 to 1000 nM in test [2].
In the case of `CCc1c(N2CCN(C(=O)c3c(O)cc(C)oc3=O)CC2)c(=O)n2nc(C3=CCOCC3)nc2n1CC(=O)Nc1ccc(C(F)(F)F)cc1Cl` [Example 4, N-(2-Chloro-4-(trifluoromethyl)phenyl)-2-(2-(3,6-dihydro-2H-pyran-4-yl)-5-ethyl-6-(4-(4-hydroxy-6-methyl-2-oxo-2H-pyran-3-carbonyl)piperazin-1-yl)-7-oxo-[1,2,4]triazolo[1,5-a]pyrimidin-4(7H)-yl)acetamide], the half-inhibitory concentration (IC50) in test [1] and in test [2] was under 100 nM throughout.
Consider `CCc1c(N2CCN(C(=O)CNC(=O)c3[nH]c(=O)ccc3F)CC2)c(=O)n2nc(C3=CCOCC3)nc2n1CC(=O)Nc1ccc(C(F)(F)F)cc1Cl` [Example 365, N-(2-(4-(4-(2-((2-Chloro-4-(trifluoromethyl)phenyl)amino)-2-oxoethyl)-2-(3,6-dihydro-2H-pyran-4-yl)-5-ethyl-7-oxo-4,7-dihydro-[1,2,4]triazolo[1,5-a]pyrimidin-6-yl)piperazin-1-yl)-2-oxoethyl)-3-fluoro-6-oxo-1,6-dihydropyridine-2-carboxamide], for which the values for the IC50 in test [1] and in test [2] were under 100 nM and 100 to 1000 nM, respectively.
Consider `CCc1c(N2CCN(C(=O)c3cn(C)c(=O)[nH]c3=O)CC2)c(=O)n2nc(C3=CCOCC3)nc2n1CC(=O)Nc1ccc(C(F)(F)F)cc1Cl` [Example 59, N-(2-Chloro-4-(trifluoromethyl)phenyl)-2-(2-(3,6-dihydro-2H-pyran-4-yl)-5-ethyl-6-(4-(1-methyl-2,4-dioxo-1,2,3,4-tetrahydropyrimidine-5-carbonyl)piperazin-1-y1)-7-oxo-[1,2,4]triazolo[1,5-a]pyrimidin-4(7H)-yl)acetamide], for which the IC50 is under 100 nM in test [1] and 100 to 1000 nM in test [2].
For `CCc1c(N2CCN(C(=O)CNC(=O)c3c[nH][nH]c3=O)CC2)c(=O)n2nc(C3=CCOCC3)nc2n1CC(=O)Nc1ccc(C(F)(F)F)cc1Cl` [Example 108, N-(2-(4-(4-(2-((2-Chloro-4-(trifluoromethyl)phenyl)amino)-2-oxoethyl)-2-(3,6-dihydro-2H-pyran-4-yl)-5-ethyl-7-oxo-4,7-dihydro-[1,2,4]triazolo[1,5-a]pyrimidin-6-yl)piperazin-1-yl)-2-oxoethyl)-3-oxo-2,3-dihydro-1H-pyrazole-4-carboxamide] the same measures were under 100 nM and under 100 nM.
As for `CCc1c(N2CCN(C(=O)CNC(=O)c3cccc(NC)c3F)CC2)c(=O)n2nc(C3=CCOCC3)nc2n1CC(=O)Nc1ccc(C(F)(F)F)cc1Cl` [Example 287, N-(2-(4-(4-(2-((2-Chloro-4-(trifluoromethyl)phenyl)amino)-2-oxoethyl)-2-(3,6-dihydro-2H-pyran-4-yl)-5-ethyl-7-oxo-4,7-dihydro-[1,2,4]triazolo[1,5-a]pyrimidin-6-yl)piperazin-1-yl)-2-oxoethyl)-2-fluoro-3-(methylamino)benzamide], the IC50 in test [1] and in test [2] was under 100 nM throughout.
`CCc1c(N2CCN(C(=O)C(=O)Nc3nccs3)CC2)c(=O)n2nc(N3CCOCC3)nc2n1CC(=O)Nc1ccc(C(F)(F)F)cc1F` [Example 260, 2-(4-(5-Ethyl-4-(2-((2-fluoro-4-(trifluoromethyl)phenyl)amino)-2-oxoethyl)-2-morpholino-7-oxo-4,7-dihydro-[1,2,4]triazolo[1,5-a]pyrimidin-6-yl)piperazin-1-yl)-2-oxo-N-(thiazol-2-yl)acetamide]: the IC50 in test [1] and in test [2] was under 100 nM throughout.
Turning to `CCc1c(N2CCN(C(=O)c3cccc4cn[nH]c34)CC2)c(=O)n2nc(C3=CCOCC3)nc2n1CC(=O)Nc1ccc(C(F)(F)F)cc1Cl` [Example 90, 2-(6-(4-(1H-Indazole-7-carbonyl)piperazin-1-yl)-2-(3,6-dihydro-2H-pyran-4-yl)-5-ethyl-7-oxo-[1,2,4]triazolo[1,5-a]pyrimidin-4(7H)-yl)-N-(2-chloro-4-(trifluoromethyl)phenyl)acetamide], the concentration for half-maximal inhibition (IC50) in test [1] was 100 to 1000 nM; in test [2] it was under 100 nM.
As to `CCc1c(N2CCN(C(=O)CN(C)C(C)=O)CC2)c(=O)n2nc(C3=CCOCC3)nc2n1CC(=O)Nc1ccc(C(F)(F)F)cc1Cl` [Example 323, 2-(6-(4-(N-Acetyl-N-methylglycyl)piperazin-1-yl)-2-(3,6-dihydro-2H-pyran-4-yl)-5-ethyl-7-oxo-[1,2,4]triazolo[1,5-a]pyrimidin-4(7H)-yl)-N-(2-chloro-4-(trifluoromethyl)phenyl)acetamide], the 50% inhibitory concentration (IC50) in test [1] and in test [2] was 100 to 1000 nM each time.
As to `CCc1c(N2CCN(C(=O)CNC(=O)c3c(F)cccc3F)CC2)c(=O)n2nc(C3=CCOCC3)nc2n1CC(=O)Nc1ccc(C(F)(F)F)cc1Cl` [Example 124, N-(2-(4-(4-(2-((2-Chloro-4-(trifluoromethyl)phenyl)amino)-2-oxoethyl)-2-(3,6-dihydro-2H-pyran-4-yl)-5-ethyl-7-oxo-4,7-dihydro-[1,2,4]triazolo[1,5-a]pyrimidin-6-yl)piperazin-1-yl)-2-oxoethyl)-2,6-difluorobenzamide], the IC50 in test [1] and in test [2] was under 100 nM in each case.
For `CCc1c(N2CCN(C(=O)CNC(=O)c3ccccc3F)CC2)c(=O)n2nc(C3=CCOCC3)nc2n1CC(=O)Nc1ccc(C(F)(F)F)cc1C` [Example 147, N-(2-(4-(2-(3,6-Dihydro-2H-pyran-4-yl)-5-ethyl-4-(2-((2-methyl-4-(trifluoromethyl)phenyl)amino)-2-oxoethyl)-7-oxo-4,7-dihydro-[1,2,4]triazolo[1,5-a]pyrimidin-6-yl)piperazin-1-yl)-2-oxoethyl)-2-fluorobenzamide], the IC50 in test [1] and in test [2] was under 100 nM in each case.
With `CCc1c(N2CCN(C(=O)C(=O)Nc3cc(C)no3)CC2)c(=O)n2nc(C3=CCOCC3)nc2n1CC(=O)Nc1ccc(C(F)(F)F)cc1Cl` [Example 348, 2-(4-(4-(2-((2-Chloro-4-(trifluoromethyl)phenyl)amino)-2-oxoethyl)-2-(3,6-dihydro-2H-pyran-4-yl)-5-ethyl-7-oxo-4,7-dihydro-[1,2,4]triazolo[1,5-a]pyrimidin-6-yl)piperazin-1-yl)-N-(3-methylisoxazol-5-yl)-2-oxoacetamide], the IC50 in test [1] and in test [2] was under 100 nM each time.
In the case of `CCc1c(N2CCN(C(=O)c3nnc(C)[nH]3)CC2)c(=O)n2nc(C3=CCOCC3)nc2n1CC(=O)Nc1ccc(C(F)(F)F)cc1F` [Example 312, 2-(2-(3,6-Dihydro-2H-pyran-4-yl)-5-ethyl-6-(4-(5-methyl-4H-1,2,4-triazole-3-carbonyl)piperazin-1-yl)-7-oxo-[1,2,4]triazolo[1,5-a]pyrimidin-4(7H)-yl)-N-(2-fluoro-4-(trifluoromethyl)phenyl)acetamide], the IC50 in test [1] and in test [2] was 100 to 1000 nM each time.
Take `CCc1c(N2CCN(C(=O)CNC(=O)NC(=O)c3cc(F)ccc3F)CC2)c(=O)n2nc(C3=CCOCC3)nc2n1CC(=O)Nc1ccc(C(F)(F)F)cc1Cl` [Example 265, N-((2-(4-(4-(2-((2-Chloro-4-(trifluoromethyl)phenyl)amino)-2-oxoethyl)-2-(3,6-dihydro-2H-pyran-4-yl)-5-ethyl-7-oxo-4,7-dihydro-[1,2,4]triazolo[1,5-a]pyrimidin-6-yl)piperazin-1-yl)-2-oxoethyl)carbamoyl)-2,5-difluorobenzamide]: the IC50 in test [1] and in test [2] was under 100 nM throughout.
Consider `CCc1c(N2CCN(C(=O)CNC(=O)COC)CC2)c(=O)n2nc(C3=CCOCC3)nc2n1CC(=O)Nc1ccc(C(F)(F)F)cc1Cl` [Example 174, N-(2-Chloro-4-(trifluoromethyl)phenyl)-2-(2-(3,6-dihydro-2H-pyran-4-yl)-5-ethyl-6-(4-((2-methoxyacetyl)glycyl)piperazin-1-yl)-7-oxo-[1,2,4]triazolo[1,5-a]pyrimidin-4(7H)-yl)acetamide], for which the IC50 in test [1] and in test [2] was under 100 nM throughout.
In the case of `CCc1c(N2CCN(C(=O)c3nn(C)c(=O)[nH]c3=O)CC2)c(=O)n2nc(C3=CCOCC3)nc2n1CC(=O)Nc1ccc(C(F)(F)F)cc1Cl` [Example 58, N-(2-Chloro-4-(trifluoromethyl)phenyl)-2-(2-(3,6-dihydro-2H-pyran-4-yl)-5-ethyl-6-(4-(2-methyl-3,5-dioxo-2,3,4,5-tetrahydro-1,2,4-triazine-6-carbonyl)piperazin-1-yl)-7-oxo-[1,2,4]triazolo[1,5-a]pyrimidin-4(7H)-yl)acetamide], the IC50 in test [1] and in test [2] was under 100 nM each time.
